Measurements from PMC3927586, “Protein kinase C-delta inactivation inhibits the proliferation and survival of cancer stem cells in culture and in vivo” (BMC Cancer, 2014).

Legend:
recombinant PKCδ = molecular target: T1, recombinant PKCδ (Homo sapiens, UniProt Q05655); experiment: PKC kinase activity assay (Z-lyte), PKCδ; format: biochemical; conditions: in vitro kinase assay; read-out: PKCδ IC50
T1 construct: purchased Invitrogen
Description: (§1) Assays were carried out using recombinant PKCδ or PKCα, (Invitrogen) and the Z-lyte Kinase Assays (Invitrogen) with a “PKC-kinase-specific” peptide substrate. FRET interactions produce a change in fluorescence (ex455/ex520) upon phosphorylation. The kit was used according to the manufacturer’s instructions.

recombinant PKCα = molecular target: T2, recombinant PKCα (Homo sapiens, UniProt P17252); experiment: PKC kinase activity assay (Z-lyte), PKCα; format: biochemical; conditions: in vitro kinase assay; read-out: PKCα IC50
T2 construct: purchased Invitrogen
Description: as §1

PCSC cells = experiment: Cytotoxicity (LDH release) in pancreatic cancer stem cells; format: cell-based, human
Description: (§2) LDH release was assessed by spectrophotometrically measuring the oxidation of NADH in both the cells and media. Cells were seeded in 24-well plates, and exposed to PKCδ inhibitors or vehicle. After different times of exposure, cytotoxicity was quantified by a standard measurement of LDH release with the use of the LDH assay kit (Roche Molecular Biochemicals) according to the manufacturer’s protocol. Briefly, total culture medium was cleared by centrifugation. For assay of released LDH, supernatants were collected. To assess total LDH in cells, Triton X-100 was added to vehicle (control) wells to release intracellular LDH. LDH assay reagent was added to lysates or supernatants and incubated for up to 30 min at room temperature in dark, the reaction was stopped, and the absorbance was measured at 490 nm. The percentage of LDH release was then calculated as the LDH in the supernatants as a fraction of the total LDH.
Figure 2 Effects of PKCδ inhibitors on human cancer stem cells. (A) PCSC and PrCSC cells at 80% confluence were exposed to rottlerin. DMSO served as vehicle control (Vehicle). After 24 and 72 hr of exposure, cell mass was evaluated by MTT assay. Control values were normalized to 100%. p values for comparison between treatments reached significance at 24 hr of exposure (p≤0.01) for both cell types, and remained significant at 72 hr. (B) PCSC and PrCSC cells at 50% confluence were exposed to rottlerin. Cytotoxicity was evaluated by LDH-release assay. Total maximal LDH release was assigned the arbitrary value of 100% (Control). p values for comparison between effects of treatments on LDH release reached significance at 24 hr of exposure (p<0.01) for both cell types, and remained significant at 72 hr. (C) Effects of PKCδ inhibitor on tumor cell clonogenic capacity. PCSC were exposed to vehicle or rottlerin (10 μM) for 6, 18, 24, or 48 hr. Viable cells were enumerated and re-plated in media without inhibitor, and colony numbers were quantitated 15 days later. p values for comparison of treatment effects on clonogenic capacity reached significance (p=0.005) at 18 hr of exposure and remained significant for all subsequent exposure times. The insert is a photograph of stained colonies on plates. (D) Structures of staurosporine, rottlerin, second-generation (KAM1) and third-generation (BJE6-106) derivatives. (E) PCSC and PrCSC cells at 50% confluence were exposed to KAM1 at the indicated concentrations. DMSO served as vehicle control (Vehicle). Cytotoxicity was evaluated by LDH-release assay, as in panel B. p values for comparison between treatment effects on LDH release reached significance at 24 hr of exposure to 2.5 μM KAM1 for PCSC cells and at 10 μM for PrCSC (p≤0.01), and remained significant at 72 hr for all concentrations of KAM1. Error bars represent SEM.

PrCSC cells = experiment: Cytotoxicity (LDH release) in prostate cancer stem cells; format: cell-based, human
Description: as §2
Figure 2 Effects of PKCδ inhibitors on human cancer stem cells. (A) PCSC and PrCSC cells at 80% confluence were exposed to rottlerin. DMSO served as vehicle control (Vehicle). After 24 and 72 hr of exposure, cell mass was evaluated by MTT assay. Control values were normalized to 100%. p values for comparison between treatments reached significance at 24 hr of exposure (p≤0.01) for both cell types, and remained significant at 72 hr. (B) PCSC and PrCSC cells at 50% confluence were exposed to rottlerin. Cytotoxicity was evaluated by LDH-release assay. […] Viable cells were enumerated and re-plated in media without inhibitor, and colony numbers were quantitated 15 days later. p values for comparison of treatment effects on clonogenic capacity reached significance (p=0.005) at 18 hr of exposure and remained significant for all subsequent exposure times. […] Cytotoxicity was evaluated by LDH-release assay, as in panel B. p values for comparison between treatment effects on LDH release reached significance at 24 hr of exposure to 2.5 μM KAM1 for PCSC cells and at 10 μM for PrCSC (p≤0.01), and remained significant at 72 hr for all concentrations of KAM1. […]

[1] = test system: non-transformed cell lines; parameters: method as in PMID 21990324; conditions: cited from earlier work

T1 sequence (Q05655 whole entry): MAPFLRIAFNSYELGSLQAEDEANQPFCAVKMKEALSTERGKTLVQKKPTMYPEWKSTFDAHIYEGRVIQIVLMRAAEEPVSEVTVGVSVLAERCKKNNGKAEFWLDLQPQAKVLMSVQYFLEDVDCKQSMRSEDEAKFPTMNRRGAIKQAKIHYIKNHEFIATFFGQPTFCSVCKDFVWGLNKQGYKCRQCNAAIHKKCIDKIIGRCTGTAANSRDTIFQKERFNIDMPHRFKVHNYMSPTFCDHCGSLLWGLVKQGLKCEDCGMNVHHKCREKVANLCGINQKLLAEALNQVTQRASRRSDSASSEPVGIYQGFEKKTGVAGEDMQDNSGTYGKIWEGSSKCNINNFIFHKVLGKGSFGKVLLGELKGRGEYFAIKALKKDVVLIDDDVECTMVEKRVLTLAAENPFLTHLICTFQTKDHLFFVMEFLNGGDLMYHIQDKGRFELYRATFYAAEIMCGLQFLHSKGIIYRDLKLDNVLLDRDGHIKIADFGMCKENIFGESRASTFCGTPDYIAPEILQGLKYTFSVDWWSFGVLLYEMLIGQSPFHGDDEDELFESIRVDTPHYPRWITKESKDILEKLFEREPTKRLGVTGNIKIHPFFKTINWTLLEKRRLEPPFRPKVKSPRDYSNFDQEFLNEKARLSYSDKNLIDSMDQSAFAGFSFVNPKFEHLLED

- IC50 (recombinant PKCδ): 2 µM
- IC50 (recombinant PKCα): 157 µM
Structure (SMILES): CC1(C)C=Cc2cc(CCn3c4ccccc4c4ccccc43)cc(C(=O)/C=C/c3ccccc3)c2O1 [KAM1]
- lowest concentration inducing cytotoxicity (LDH release) in PCSC (PCSC cells): 2.5 µM
- concentration at which LDH release reached significance in PCSC (PCSC cells; 24 hr of exposure, p≤0.01): 2.5 µM
- lowest concentration inducing cytotoxicity (LDH release) in PrCSC (PrCSC cells): 5 µM
- concentration at which LDH release reached significance in PrCSC (PrCSC cells; 24 hr of exposure, p≤0.01): 10 µM
- cytotoxicity in non-transformed cell lines [1]: not producing cytotoxicity
